Like-named read-outs stand apart in the source and are kept apart here.

From US8895568B2, “Compositions comprising substituted pteridines as agrochemicals” (Dow AgroSciences LLC, priority 2009, dated 2014) come the findings set out here.

Common to all, as to type: in vivo
For test [1], the system named is DROSME, AEDSAE, LAPHEG, or HELIVI. Put plainly: Insecticidal activity, active if any of DROSME, AEDSAE, LAPHEG or HELIVI was controlled at 80% or more. The conditions noted are these: read-out: >80% mortality on any insect species @ 4000 ppm.
Test [2] relates to Pseudoperonospora cubensis. The experiment in a line: Cucumber Downy Mildew (PSPECU), foliar spray, percent disease control. The settings on record: read-out: PSPECU percent control.
A further test concerns Colletotricum lagenarium. Put plainly: Cucumber Anthracnose (COLLLA), foliar spray, percent disease control.
A further test deals with Cochliobolus sativus. Put plainly: Spot Blotch of Wheat (COCHSA), foliar spray, percent disease control. The settings on record: Bipolaris sorokiniana, read-out: COCHSA percent control.

For the compound `N#Cc1ccnc(Oc2ccc(CCNc3ncnc4nccnc34)cc2)c1` [Compound 8], in test [1], the pest or weed control at 4000 ppm is over 80%. Further, the pest or weed control at 200 µg/mL in test [2] (foliar) is 80 to 100%; in the test on Colletotricum lagenarium (foliar) it was 80 to 100%; in the test with Cochliobolus sativus (foliar), 0 to 49%.
Take `Cc1cc(CCNc2ncnc3nccnc23)ccc1Oc1ncc(C(F)(F)F)cc1F` [Compound 143]: the pest or weed control at 4000 ppm in test [1] was over 80%. Also, the values for the pest or weed control at 200 µg/mL (in test [2] (foliar); in the test on Colletotricum lagenarium (foliar); in the test with Cochliobolus sativus (foliar)) were 80 to 100%, 0 to 49% and 0 to 49%, respectively.
With `c1cnc(Oc2ccc(CCNc3ncnc4nccnc34)cc2)cn1` [Compound 28], the pest or weed control at 4000 ppm in test [1] was over 80%. The pest or weed control at 200 µg/mL was in the range of 80 to 100% in test [2] (foliar), 0 to 49% in the test with Colletotricum lagenarium (foliar) and 0 to 49% with Cochliobolus sativus (foliar).
Turning to `Fc1cc(Oc2ccc(CCNc3ncnc4nccnc34)cc2)c(F)cn1` [Compound 108], the pest or weed control at 4000 ppm in test [1] was over 80%. The pest or weed control at 200 µg/mL in test [2] (foliar) was 80 to 100%; in the test on Colletotricum lagenarium (foliar) it was 0 to 49%; in the test with Cochliobolus sativus (foliar), 0 to 49%.
Consider `Cc1cc(CCNc2ncnc3nccnc23)ccc1Oc1cncc(Cl)c1C#N` [Compound 142], for which the pest or weed control at 4000 ppm in test [1] was over 80%. The pest or weed control at 200 µg/mL in test [2] (foliar) lay in the range of 80 to 100%; with Colletotricum lagenarium (foliar), 0 to 49%; in the test with Cochliobolus sativus (foliar), 0 to 49%.
Turning to `Fc1cccc(Oc2ccc(CCNc3ncnc4nccnc34)cc2)c1C(F)(F)F` [Compound 216], the pest or weed control at 4000 ppm in test [1] was over 80%. For the same compound, the figures for the pest or weed control at 200 µg/mL (in test [2] (foliar spray); with Colletotricum lagenarium (foliar spray); in the test with Cochliobolus sativus (foliar spray)) were 80 to 100%, 0 to 49% and 0 to 49%, respectively.
As to `Cc1cc(Oc2cc(C(F)(F)F)ccn2)c(C)cc1CCNc1ncnc2nccnc12` [Compound 152], the pest or weed control at 4000 ppm in test [1] is over 80%. Also, the pest or weed control at 200 µg/mL in test [2] (foliar) fell in the range of 80 to 100%; with Colletotricum lagenarium (foliar), 0 to 49%; in the test with Cochliobolus sativus (foliar), 0 to 49%.
For the compound `CCCOc1cc(CCNc2ncnc3nccnc23)ccc1Oc1cc(C(C)(F)F)ccn1` [Compound 199], in test [1], the pest or weed control at 4000 ppm was over 80%. For the same compound, the pest or weed control at 200 µg/mL in test [2] (foliar) lay in the range of 80 to 100%; in the test with Colletotricum lagenarium (foliar), 0 to 49%; in the test on Cochliobolus sativus (foliar) it was 0 to 49%.
In the case of `Cc1c(CCNc2ncnc3nccnc23)ccc(Oc2ccc(C(F)(F)F)cn2)c1C` [Compound 144], in test [1], the pest or weed control at 4000 ppm was over 80%. Further, the pest or weed control at 200 µg/mL in test [2] (foliar) is 80 to 100%; with Colletotricum lagenarium (foliar), 0 to 49%; in the test with Cochliobolus sativus (foliar), 0 to 49%.
As for `CC(=O)Oc1cc(CCNc2ncnc3nccnc23)ccc1Oc1cc(C(F)(F)F)ccn1` [Compound 190, Acetic acid 5-[2-(pteridin-4-ylamino)-ethyl]-2-(4-trifluoromethylpyridin-2-yloxy)-phenyl ester], the pest or weed control at 4000 ppm in test [1] is over 80%. Besides, the pest or weed control at 200 µg/mL (in test [2] (foliar); with Colletotricum lagenarium (foliar); in the test on Cochliobolus sativus (foliar)) was 0 to 49% throughout.
In the case of `CC(Nc1ncnc2nccnc12)c1ccc(Oc2cc(C(F)(F)F)ccn2)cc1` (stereo not drawn) [Compound 82], the pest or weed control at 4000 ppm in test [1] is over 80%. The pest or weed control at 200 µg/mL in test [2] (foliar) lay in the range of 80 to 100%; in the test with Colletotricum lagenarium (foliar), 0 to 49%; in the test with Cochliobolus sativus (foliar), 0 to 49%.
As for `Cc1cnc(Oc2ccc(CCNc3ncnc4nccnc34)cc2)s1` [Compound 66], the pest or weed control at 4000 ppm in test [1] was over 80%. Also, the pest or weed control at 200 µg/mL in test [2] (foliar) was in the range of 80 to 100%; in the test on Colletotricum lagenarium (foliar) it was 80 to 100%; with Cochliobolus sativus (foliar) it was 50 to 79%.
Regarding `CC(C)(C)OC(=O)c1ccnc(Oc2ccc(CCNc3ncnc4nccnc34)cc2)c1` [Compound 192], in test [1], the pest or weed control at 4000 ppm is over 80%. The pest or weed control at 200 µg/mL in test [2] (foliar) lay in the range of 80 to 100%; with Colletotricum lagenarium (foliar), 80 to 100%; in the test on Cochliobolus sativus (foliar), 0 to 49%.
As to `COc1cc(CCNc2ncnc3nccnc23)ccc1Oc1cc(C(C)C)ccn1` [Compound 204], the pest or weed control at 4000 ppm in test [1] was over 80%. In addition, the pest or weed control at 200 µg/mL in test [2] (foliar spray) was in the range of 80 to 100%; in the test on Colletotricum lagenarium (foliar spray), 0 to 49%; in the test on Cochliobolus sativus (foliar spray), 0 to 49%.
`N#Cc1cccc(Oc2ccc(CCNc3ncnc4nccnc34)cc2)n1` [Compound 13]: the pest or weed control at 4000 ppm in test [1] was over 80%. Moreover, the pest or weed control at 200 µg/mL in test [2] (foliar) was in the range of 80 to 100%; in the test on Colletotricum lagenarium (foliar), 0 to 49%; with Cochliobolus sativus (foliar), 0 to 49%.
On to `CC(C)c1ccnc(Oc2ccc(CCNc3ncnc4nccnc34)cc2)c1` [Compound 203], for which, in test [1], the pest or weed control at 4000 ppm was over 80%. Further, the figures for the pest or weed control at 200 µg/mL (in test [2] (foliar spray); in the test with Colletotricum lagenarium (foliar spray); in the test on Cochliobolus sativus (foliar spray)) were 80 to 100%, 50 to 79% and 0 to 49%, respectively.
With `FC(F)c1ccnc(Oc2ccc(CCNc3ncnc4nccnc34)cc2)c1` [Compound 101], in test [1], the pest or weed control at 4000 ppm is over 80%. The pest or weed control at 200 µg/mL in test [2] (foliar) was in the range of 80 to 100%; in the test with Colletotricum lagenarium (foliar), 80 to 100%; in the test on Cochliobolus sativus (foliar) it was 0 to 49%.
Consider `FC(F)(F)c1ccnc(Oc2ccc(CCNc3ncnc4nccnc34)cc2)c1` [Compound 2, pteridin-4-yl-{2-[4-(4-trifluoromethylpyridin-2-yloxy)-phenyl]-ethyl}-amine], for which the pest or weed control at 4000 ppm in test [1] was over 80%. The pest or weed control at 200 µg/mL in test [2] (foliar) was in the range of 80 to 100%; with Colletotricum lagenarium (foliar), 80 to 100%; in the test with Cochliobolus sativus (foliar), 50 to 79%.
As to `Fc1cccc(Oc2ccc(CCNc3ncnc4nccnc34)cc2)n1` [Compound 7, {2-[4-(6-Fluoropyridin-2-yloxy)-phenyl]-ethyl}-pteridin-4-ylamine], the pest or weed control at 4000 ppm in test [1] is over 80%. Besides, the pest or weed control at 200 µg/mL lay within 80 to 100% in test [2] (foliar), 0 to 49% in the test on Colletotricum lagenarium (foliar) and 0 to 49% with Cochliobolus sativus (foliar).
For `CC(F)(F)c1ccnc(Oc2ccc(CCNc3ncnc4nccnc34)cc2)c1` [Compound 44], the pest or weed control at 4000 ppm in test [1] is over 80%. Besides, the results for the pest or weed control at 200 µg/mL (in test [2] (foliar); in the test with Colletotricum lagenarium (foliar); in the test with Cochliobolus sativus (foliar)) were 80 to 100%, 50 to 79% and 0 to 49%, respectively.
`FC(F)(F)c1ccnc(Oc2ccc(CCNc3ncnc4ncc(Cl)nc34)cc2)n1` [Compound 75]: the pest or weed control at 4000 ppm in test [1] is over 80%. The pest or weed control at 200 µg/mL (in test [2] (foliar); in the test with Colletotricum lagenarium (foliar); in the test on Cochliobolus sativus (foliar)) was 0 to 49% each time.
Regarding `COc1cccc(Oc2ccc(CCNc3ncnc4nccnc34)cc2)n1` [Compound 10, {2-[4-(6-Methoxypyridin-2-yloxy)-phenyl]-ethyl}-pteridin-4-yl-amine], the pest or weed control at 4000 ppm in test [1] was over 80%. Besides, the pest or weed control at 200 µg/mL lay within 80 to 100% in test [2] (foliar), 0 to 49% in the test with Colletotricum lagenarium (foliar) and 0 to 49% in the test with Cochliobolus sativus (foliar).
Turning to `Cc1cc(Oc2cc(C(C)(F)F)ccn2)c(C)cc1CCNc1ncnc2nccnc12` [Compound 194], in test [1], the pest or weed control at 4000 ppm is over 80%. Besides, the pest or weed control at 200 µg/mL in test [2] (foliar) fell in the range of 80 to 100%; in the test on Colletotricum lagenarium (foliar), 80 to 100%; in the test with Cochliobolus sativus (foliar), 0 to 49%.
As for `Fc1cc(Oc2ncc(C(F)(F)F)cc2F)ccc1CCNc1ncnc2nccnc12` [Compound 114], the pest or weed control at 4000 ppm in test [1] is over 80%. The pest or weed control at 200 µg/mL lay within 80 to 100% in test [2] (foliar), 0 to 49% with Colletotricum lagenarium (foliar) and 0 to 49% with Cochliobolus sativus (foliar).
